Among the data in patent US9187424B1, “Aryl dihydropyridinones and piperidinone MGAT2 inhibitors” (Bristol-Myers Squibb Company, priority 2011, dated 2015) are IC50 values, retold here.

Experiment [1] deals with T1, Human MGAT-2 (Homo sapiens (Human), UniProt Q3SYC2). Description: MGAT LCMS Assay (human MGAT-2).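 Note: diolein product quantified by LC/MS with positive APCI, expressed as peak area ratio versus an internal standard, and this ratio used to derive IC50.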 It counts as biochemical. The note with it: human MGAT-2 membranes expressed in Sf9 cells; 2-oleoylglycerol and oleoyl-Coenzyme A; read-out: h-MGAT2 IC50 (nM) LCMS Assay.
The target in experiment [2] is T1, Human MGAT-2. Put plainly: MGAT SPA Assay.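 Note: inhibition scaled between DMSO vehicle as full MGAT2 activity and membranes of uninfected Sf9 cells as blank, IC50 fitted by logistic curve.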 It counts as biochemical. The note with it: membranes from Sf9 cells expressing recombinant human MGAT2; 2-monooleoylglycerol and [3H]-oleoyl-CoA.

T1 sequence (Q3SYC2 whole entry): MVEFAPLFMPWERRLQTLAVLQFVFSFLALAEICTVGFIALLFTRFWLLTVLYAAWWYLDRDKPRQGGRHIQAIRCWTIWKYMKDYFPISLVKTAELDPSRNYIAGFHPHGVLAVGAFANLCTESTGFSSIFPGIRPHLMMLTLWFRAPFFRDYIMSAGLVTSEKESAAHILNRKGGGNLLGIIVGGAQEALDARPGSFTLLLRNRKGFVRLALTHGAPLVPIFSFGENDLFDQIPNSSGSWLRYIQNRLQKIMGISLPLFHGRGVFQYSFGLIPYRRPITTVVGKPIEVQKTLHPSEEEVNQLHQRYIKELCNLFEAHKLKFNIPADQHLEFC

A word on the IC50: it is the concentration that gives 50% inhibition. As for `Cc1ccc(C2=C(C(=O)Nc3ccno3)C(=O)NC(c3ccc(OCCC(F)(F)F)cc3)(C(F)(F)F)C2)cc1` (centres unmarked) [Example 130], the IC50 on Human MGAT-2 [1] came out at 1 nM; at Human MGAT-2 [2], 20 nM.

For `Cc1ccc(C2=C(C(=O)Nc3ccc(F)cc3)C(=O)NC(c3ccc(Oc4ccccc4)cc3)(C(F)(F)F)C2)cc1` (centres unmarked) [Example 165], the IC50 on Human MGAT-2 [1] was 8 nM; at Human MGAT-2 [2] it was 60 nM.

As to `Cc1ccc(C2=C(C#N)C(=O)NC(c3ccc(OCCOC(C)(C)C)cc3)(C(F)(F)F)C2)cc1` (centres unmarked) [Example 34], the results for the IC50 on Human MGAT-2 [1] and on Human MGAT-2 [2] were 126 nM and 656 nM, respectively.

Take `Cc1ccc(C2=C(NC(=O)c3cc(OCc4ccccc4)no3)C(=O)NC(c3ccc(OCCCC(F)(F)F)cc3)(C(F)(F)F)C2)cc1` (centres unmarked) [Example 180]: the results for the IC50 on Human MGAT-2 [1] and at Human MGAT-2 [2] were 30 nM and 36 nM, respectively.

Consider `COc1ccc(C2=C(n3cnnn3)C(=O)NC(c3ccc(OCCCC(F)(F)F)cc3)(C(F)(F)F)C2)cc1` (centres unmarked) [Example 143], for which the IC50 on Human MGAT-2 [1] was 4 nM; on Human MGAT-2 [2] it was 156 nM.

`Cc1ccc(C2=C(NC(=O)c3cc(Br)no3)C(=O)NC(c3ccc(OCCCC(F)(F)F)cc3)(C(F)(F)F)C2)cc1` (centres unmarked) [Example 179]: the results for the IC50 on Human MGAT-2 [1] and on Human MGAT-2 [2] were 2 nM and 24 nM, respectively.

For the compound `Cc1ccc(C2=C([N+](=O)[O-])C(=O)NC(c3ccc(OCCCC(F)(F)F)cc3)(C(F)(F)F)C2)cc1` (centres unmarked) [Example 13, 3-Nitro-4-p-tolyl-6-(4-(4,4,4-trifluorobutoxyl)phenyl)-6-(trifluoromethyl)-5,6-dihydropyridin-2(1H)-one], the IC50 at Human MGAT-2 [1] is 35 nM; on Human MGAT-2 [2], 3330 nM.

Regarding `O=C1NC(c2ccc(OCCCC(F)(F)F)cc2)(C(F)(F)F)CC(c2ccc(Cl)cc2)=C1c1nn[nH]n1` (centres unmarked) [Example 101], the IC50 at Human MGAT-2 [1] came out at 108 nM; on Human MGAT-2 [2], 379 nM.

`Cc1ccc(C2=C(NC(=O)c3ccccc3C)C(=O)N[C@@](c3ccc(OCCCC(F)(F)F)cc3)(C(F)(F)F)C2)cc1` [Example 105, (S)-2-Methyl-N-(2-oxo-4-p-tolyl-6-(4-(4,4,4-trifluorobutoxyl)phenyl)-6-(trifluoromethyl)-1,2,5,6-tetrahydropyridin-3-yl)benzamide]: the results for the IC50 at Human MGAT-2 [1] and at Human MGAT-2 [2] were 24 nM and 672 nM, respectively.

For the compound `Cc1ccc(C2=C(NC(=O)c3cc(C)no3)C(=O)NC(c3ccc(OCCCC(F)(F)F)cc3)(C(F)(F)F)C2(F)F)cc1` (centres unmarked) [Example 150], the IC50 came out at 3 nM at Human MGAT-2 [1] and 11 nM on Human MGAT-2 [2].

In the case of `COc1ccc(C2=C[C@](c3ccc(OCCCC(F)(F)F)cc3)(C(F)(F)F)NC(=O)C2(F)C#N)cc1` (single isomer, unassigned) [Example 15-1, 3-Fluoro-4-(4-methoxyphenyl)-2-oxo-6-(4-(4,4,4-trifluorobutoxyl)phenyl)-6-(trifluoromethyl)-1,2,3,6-tetrahydropyridine-3-carbonitrile], the IC50 worked out at 12 nM at Human MGAT-2 [1] and 3310 nM on Human MGAT-2 [2].

As to `Cc1ccc(C2=C(C(=O)Nc3ccc(F)cc3)C(=O)NC(c3ccc(Oc4ccncn4)cc3)(C(F)(F)F)C2)cc1` (centres unmarked) [Example 49], the results for the IC50 on Human MGAT-2 [1] and on Human MGAT-2 [2] were 64 nM and 127 nM, respectively.

As for `COc1ccc(NC(=O)C2=C(c3ccc(C)cc3)CC(C)(C(=O)NCCCCc3ccccc3)NC2=O)cc1` (centres unmarked) [Example 178], the IC50 at Human MGAT-2 [1] stood at 78 nM; on Human MGAT-2 [2], 47 nM.

With `COc1ccc(NC(=O)C2C(=O)N[C@@](c3ccc(OCCCC(F)(F)F)cc3)(C(F)(F)F)CC2c2ccc(C)cc2)cc1` (single isomer, unassigned) [Example 16-2, N-(4-Methoxyphenyl)-2-oxo-4-p-tolyl-6-(4-(4,4,4-trifluorobutoxyl)phenyl)-6-(trifluoromethyl)piperidine-3-carboxamide], the IC50 was found to be 416 nM on Human MGAT-2 [1] and 8430 nM at Human MGAT-2 [2].

On to `N#CC1=C(c2ccc3ccccc3c2)CC(c2ccc(OCCCC(F)(F)F)cc2)(C(F)(F)F)NC1=O` (centres unmarked) [Example 73], for which the IC50 was found to be 15 nM at Human MGAT-2 [1] and 684 nM on Human MGAT-2 [2].

`N#CC1=C(c2ccc3ccccc3c2)CC(c2ccc(OCCCC(F)(F)F)cc2)(C(F)(F)F)NC1=O` (centres unmarked) [Example 146]: the results for the IC50 at Human MGAT-2 [1] and on Human MGAT-2 [2] were 25 nM and 397 nM, respectively.
